The text below walks through data of US20030162722A1, “Pharmaceutical compositions comprising acryloyl distamycin derivatives and topoisomerase I and II inhibitors” (priority 2000, published 2003).

The data set concerns disseminated L1210 murine leukemia. Nature of the data set: Antileukemic activity against disseminated L1210 murine leukemia. The settings on record: PNU 166196 0.52 mg/kg; for ILS % (increase in life span) / Tox (number of toxic deaths/number of mice): L1210 cells 10^5/mouse CD2F1 IV day 0, treatment iv day +1, doxorubicin 10 mg/kg (given 2 h after PNU 166196), alone or combined at the same doses. The source says: For these experiments, PNU 166196 and doxorubicin were solubilized in water for injection.

On to `COc1cccc2c1C(=O)c1c(O)c3c(c(O)c1C2=O)C[C@@](O)(C(=O)CO)C[C@@H]3O[C@H]1C[C@H](N)[C@H](O)[C@H](C)O1` [Doxorubicin, doxorubicin, reference compound], for which the “ILS % (increase in life span)” value was 58% and the “Tox (number of toxic deaths/number of mice)” value was 0/10.
Consider `C=C(Br)C(=O)Nc1cc(C(=O)Nc2cc(C(=O)Nc3cc(C(=O)Nc4cc(C(=O)NCCNC(=N)N)n(C)c4)n(C)c3)n(C)c2)n(C)c1.Cl` [PNU 166196, N-(5-{[(5-{[(5-{[(2-{[amino(imino)methyl]amino}ethyl)amino]carbonyl}-1-methyl-1H-pyrrol-3-yl)amino]carbonyl}-1-methyl-1H-pyrrol-3-yl)amino]carbonyl}-1-methyl-1H-pyrrol-3-yl)-4-[(2-bromoacryloyl)amino]-1-methyl-1H-pyrrole-2-carboxamide hydrochloride], for which the “ILS % (increase in life span)” value is on record as 33% and the “Tox (number of toxic deaths/number of mice)” value was 0/10. The “toxicity (in words)” value (single agents, iv day +1, doxorubicin 10 mg/kg) is listed as “without toxicity”.
